Test results: article PMC7377239, “Cardiovascular Effects of Polychlorinated Biphenyls and Their Major Metabolites” (Environmental Health Perspectives, 2020)
Where a name gives a salt, the structure may show the parent alone. Read-outs that look alike come from different tables or passages of the source.

System: iCell cardiomyocytes (human iPSC-derived cardiomyocytes)
Test: Intracellular Ca2+ flux / beating parameters in iCell cardiomyocytes (FLIPR tetra), 90 min or 24 h
Format: cell-based
Settings: 0.00 µM = 100.00; for activity at 0.01 µM / activity at 0.1 µM / activity at 1 µM / activity at 10 µM / activity at 100 µM: Homo sapiens, Cardiomyocyte
Procedure, shortened: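 PODs were defined as the concentration crossing one SD of the vehicle-control means (0.5% DMSO) on four-parameter logistic fits of Ca2+ trace metrics (peak height, frequency, peak-spacing CV, decay/rise ratio). Traces came from 100 s, 8 Hz FLIPR reads at 37 °C on calcium-dye-loaded iCell cardiomyocytes. Before reading, cells were treated for 90 min or 24 h from 5× chemical plates spanning 0.05–500 µM, in triplicate.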

[1] = 1.5 h, 0.01 µM, read-out: cm.amp.avg.90min
[2] = 1.5 h, 0.01 µM, read-out: cm.amp.cv.90min
[3] = 1.5 h, 0.01 µM, read-out: cm.bpm.90min
[4] = 1.5 h, 0.01 µM, read-out: cm.decay.rise.90min
[5] = 1.5 h, 0.01 µM, read-out: cm.spacing.cv.90min
[6] = 1.5 h, 0.10 µM, read-out: cm.amp.avg.90min
[7] = 1.5 h, 0.10 µM, read-out: cm.amp.cv.90min
[8] = 1.5 h, 0.10 µM, read-out: cm.bpm.90min
[9] = 1.5 h, 0.10 µM, read-out: cm.decay.rise.90min
[10] = 1.5 h, 0.10 µM, read-out: cm.spacing.cv.90min
[11] = 1.5 h, 1.00 µM, read-out: cm.amp.avg.90min
[12] = 1.5 h, 1.00 µM, read-out: cm.amp.cv.90min
[13] = 1.5 h, 1.00 µM, read-out: cm.bpm.90min
[14] = 1.5 h, 1.00 µM, read-out: cm.decay.rise.90min
[15] = 1.5 h, 1.00 µM, read-out: cm.spacing.cv.90min
[16] = 1.5 h, 10.00 µM, read-out: cm.amp.avg.90min
[17] = 1.5 h, 10.00 µM, read-out: cm.amp.cv.90min
[18] = 1.5 h, 10.00 µM, read-out: cm.bpm.90min
[19] = 1.5 h, 10.00 µM, read-out: cm.decay.rise.90min
[20] = 1.5 h, 10.00 µM, read-out: cm.spacing.cv.90min
[21] = 1.5 h, 100.00 µM, read-out: cm.amp.avg.90min
[22] = 1.5 h, 100.00 µM, read-out: cm.amp.cv.90min
[23] = 1.5 h, 100.00 µM, read-out: cm.bpm.90min
[24] = 1.5 h, 100.00 µM, read-out: cm.decay.rise.90min
[25] = 1.5 h, 100.00 µM, read-out: cm.spacing.cv.90min
[26] = 24 h, 0.01 µM, read-out: cm.amp.avg.24hrs
[27] = 24 h, 0.01 µM, read-out: cm.amp.cv.24hrs
[28] = 24 h, 0.01 µM, read-out: cm.bpm.24hrs
[29] = 24 h, 0.01 µM, read-out: cm.decay.rise.24hrs
[30] = 24 h, 0.01 µM, read-out: cm.spacing.cv.24hrs
[31] = 24 h, 0.10 µM, read-out: cm.amp.avg.24hrs
[32] = 24 h, 0.10 µM, read-out: cm.amp.cv.24hrs
[33] = 24 h, 0.10 µM, read-out: cm.bpm.24hrs
[34] = 24 h, 0.10 µM, read-out: cm.decay.rise.24hrs
[35] = 24 h, 0.10 µM, read-out: cm.spacing.cv.24hrs
[36] = 24 h, 1.00 µM, read-out: cm.amp.avg.24hrs
[37] = 24 h, 1.00 µM, read-out: cm.amp.cv.24hrs
[38] = 24 h, 1.00 µM, read-out: cm.bpm.24hrs
[39] = 24 h, 1.00 µM, read-out: cm.decay.rise.24hrs
[40] = 24 h, 1.00 µM, read-out: cm.spacing.cv.24hrs
[41] = 24 h, 10.00 µM, read-out: cm.amp.avg.24hrs
[42] = 24 h, 10.00 µM, read-out: cm.amp.cv.24hrs
[43] = 24 h, 10.00 µM, read-out: cm.bpm.24hrs
[44] = 24 h, 10.00 µM, read-out: cm.decay.rise.24hrs
[45] = 24 h, 10.00 µM, read-out: cm.spacing.cv.24hrs
[46] = 24 h, 100.00 µM, read-out: cm.amp.avg.24hrs
[47] = 24 h, 100.00 µM, read-out: cm.amp.cv.24hrs
[48] = 24 h, 100.00 µM, read-out: cm.bpm.24hrs
[49] = 24 h, 100.00 µM, read-out: cm.decay.rise.24hrs
[50] = 24 h, 100.00 µM, read-out: cm.spacing.cv.24hrs

Compound Clc1cccc(-c2cccc(Cl)c2)c1 [PCB11] has an activity at 0.01 µM [1] of 99.2%, an activity at 0.01 µM [2] of 103% and an activity at 0.01 µM [3] of 103%. It also gave an activity at 0.01 µM [4] of 101%, an activity at 0.01 µM [5] of 93.4% and an activity at 0.1 µM [6] of 102%. It also gave an activity at 0.1 µM [7] of 91.4%, an activity at 0.1 µM [8] of 103% and an activity at 0.1 µM [9] of 98.2%. For the same compound, the activity at 0.1 µM [10] was 89.8%, the activity at 1 µM [11] was 105% and the activity at 1 µM [12] was 97.9%. It also gave an activity at 1 µM [13] of 95.3%, an activity at 1 µM [14] of 99.6% and an activity at 1 µM [15] of 107%. The activity at 10 µM [16] was 94.8%, the activity at 10 µM [17] was 99.8% and the activity at 10 µM [18] was 114%. It also gave an activity at 10 µM [19] of 91.8%, an activity at 10 µM [20] of 101% and an activity at 100 µM [21] of 22.3%. It also gave an activity at 100 µM [22] of 139%, an activity at 100 µM [23] of 0% and an activity at 100 µM [24] of 54.6%. It also gave an activity at 100 µM [25] of 66.2%, an activity at 0.01 µM [26] of 137% and an activity at 0.01 µM [27] of 77.1%. The activity at 0.01 µM [28] was 108%, the activity at 0.01 µM [29] was 93.4% and the activity at 0.01 µM [30] was 127%. The activity at 0.1 µM [31] was 134%, the activity at 0.1 µM [32] was 69.8% and the activity at 0.1 µM [33] was 105%. For the same compound, the activity at 0.1 µM [34] was 98.1%, the activity at 0.1 µM [35] was 98.2% and the activity at 1 µM [36] was 130%. The activity at 1 µM [37] was 77.5%, the activity at 1 µM [38] was 93.6% and the activity at 1 µM [39] was 108%. It also gave an activity at 1 µM [40] of 92.8%, an activity at 10 µM [41] of 110% and an activity at 10 µM [42] of 90.8%. The activity at 10 µM [43] was 106%, the activity at 10 µM [44] was 111% and the activity at 10 µM [45] was 98.2%. For the same compound, the activity at 100 µM [46] was 0%, the activity at 100 µM [47] was 0% and the activity at 100 µM [48] was 0%. For the same compound, the activity at 100 µM [49] was 0% and the activity at 100 µM [50] was 0%.
For O=S(=O)(O)Oc1ccc(-c2cccc(Cl)c2)cc1Cl [4-yl PCB 11 sulfate], the activity at 0.01 µM [1] was 98.2%, the activity at 0.01 µM [2] was 88.2% and the activity at 0.01 µM [3] was 97.8%. The activity at 0.01 µM [4] was 98.1%, the activity at 0.01 µM [5] was 99.6% and the activity at 0.1 µM [6] was 93.1%. It also gave an activity at 0.1 µM [7] of 97.2%, an activity at 0.1 µM [8] of 100% and an activity at 0.1 µM [9] of 102%. It also gave an activity at 0.1 µM [10] of 99%, an activity at 1 µM [11] of 99.5% and an activity at 1 µM [12] of 116%. The activity at 1 µM [13] was 99.1%, the activity at 1 µM [14] was 99.7% and the activity at 1 µM [15] was 103%. The activity at 10 µM [16] was 96.9%, the activity at 10 µM [17] was 93.4% and the activity at 10 µM [18] was 99.1%. The activity at 10 µM [19] was 98.1%, the activity at 10 µM [20] was 96.5% and the activity at 100 µM [21] was 45.7%. For the same compound, the activity at 100 µM [22] was 62.5%, the activity at 100 µM [23] was 15.1% and the activity at 100 µM [24] was 39.8%. The activity at 100 µM [25] was 107%, the activity at 0.01 µM [26] was 98.1% and the activity at 0.01 µM [27] was 94.2%. The activity at 0.01 µM [28] was 97.4%, the activity at 0.01 µM [29] was 110% and the activity at 0.01 µM [30] was 104%. The activity at 0.1 µM [31] was 78.9%, the activity at 0.1 µM [32] was 34.3% and the activity at 0.1 µM [33] was 46.8%. The activity at 0.1 µM [34] was 51.8%, the activity at 0.1 µM [35] was 46.3% and the activity at 1 µM [36] was 88.9%. The activity at 1 µM [37] was 119%, the activity at 1 µM [38] was 93.6% and the activity at 1 µM [39] was 100%. It also gave an activity at 1 µM [40] of 87.1%, an activity at 10 µM [41] of 88.7% and an activity at 10 µM [42] of 119%. It also gave an activity at 10 µM [43] of 93.6%, an activity at 10 µM [44] of 104% and an activity at 10 µM [45] of 98.9%. It also gave an activity at 100 µM [46] of 0%, an activity at 100 µM [47] of 0% and an activity at 100 µM [48] of 0%. For the same compound, the activity at 100 µM [49] was 0% and the activity at 100 µM [50] was 0%.
Clc1ccc(Cl)c(-c2c(Cl)ccc(Cl)c2Cl)c1Cl [(-)-PCB 136, 2,2′,3,3′,6,6′-hexachlorobiphenyl] was tested, and the cm.amp.avg.90min (0.01 µM) was 93.19, the cm.amp.cv.90min (0.01 µM) was 114.99 and the cm.bpm.90min (0.01 µM) was 99.06. It also gave a cm.decay.rise.90min (0.01 µM) of 100.18, a cm.spacing.cv.90min (0.01 µM) of 110.22 and a cm.amp.avg.24hrs (0.01 µM) of 96.89. The cm.amp.cv.24hrs (0.01 µM) was 99.89, the cm.bpm.24hrs (0.01 µM) was 97.37 and the cm.decay.rise.24hrs (0.01 µM) was 110.34. It also gave a cm.spacing.cv.24hrs (0.01 µM) of 99.92, a cm.amp.avg.90min (0.10 µM) of 107.52 and a cm.amp.cv.90min (0.10 µM) of 110.59. For the same compound, the cm.bpm.90min (0.10 µM) was 101.57, the cm.decay.rise.90min (0.10 µM) was 100.78 and the cm.spacing.cv.90min (0.10 µM) was 107.82. The cm.amp.avg.24hrs (0.10 µM) was 74.13, the cm.amp.cv.24hrs (0.10 µM) was 32.34 and the cm.bpm.24hrs (0.10 µM) was 44.87. It also gave a cm.decay.rise.24hrs (0.10 µM) of 55.66, a cm.spacing.cv.24hrs (0.10 µM) of 50.62 and a cm.amp.avg.90min (1.00 µM) of 95.68. The cm.amp.cv.90min (1.00 µM) was 133.10, the cm.bpm.90min (1.00 µM) was 102.82 and the cm.decay.rise.90min (1.00 µM) was 105.32. The cm.spacing.cv.90min (1.00 µM) was 97.68, the cm.amp.avg.24hrs (1.00 µM) was 66.49 and the cm.amp.cv.24hrs (1.00 µM) was 35.31. For the same compound, the cm.bpm.24hrs (1.00 µM) was 50.60, the cm.decay.rise.24hrs (1.00 µM) was 50.54 and the cm.spacing.cv.24hrs (1.00 µM) was 53.09. For the same compound, the cm.amp.avg.90min (10.00 µM) was 76.03, the cm.amp.cv.90min (10.00 µM) was 119.24 and the cm.bpm.90min (10.00 µM) was 115.36. For the same compound, the cm.decay.rise.90min (10.00 µM) was 88.64, the cm.spacing.cv.90min (10.00 µM) was 116.95 and the cm.amp.avg.24hrs (10.00 µM) was 43.21. For the same compound, the cm.amp.cv.24hrs (10.00 µM) was 38.97, the cm.bpm.24hrs (10.00 µM) was 43.91 and the cm.decay.rise.24hrs (10.00 µM) was 43.15. The cm.spacing.cv.24hrs (10.00 µM) was 54.11, the cm.amp.avg.90min (100.00 µM) was 0.00 and the cm.amp.cv.90min (100.00 µM) was 0.00. It also gave a cm.bpm.90min (100.00 µM) of 0.00, a cm.decay.rise.90min (100.00 µM) of 0.00 and a cm.spacing.cv.90min (100.00 µM) of 0.00. It also gave a cm.amp.avg.24hrs (100.00 µM) of 0.00, a cm.amp.cv.24hrs (100.00 µM) of 0.00 and a cm.bpm.24hrs (100.00 µM) of 0.00. It also gave a cm.decay.rise.24hrs (100.00 µM) of 0.00 and a cm.spacing.cv.24hrs (100.00 µM) of 0.00.
